Data taken from ChEMBL document CHEMBL2434873, “Synthesis of VS-105: A novel and potent vitamin D receptor agonist with reduced hypercalcemic effects” (Bioorg Med Chem Lett, 2013).

Columns and labels:
HL-60 = assay: Induction of human HL60 cell differentiation after 4 days by NBT reduction assay; type: functional, cell-based; conditions: HL-60, 96 h
Vitamin D3 receptor [1] = molecular target: T1, Vitamin D3 receptor (Homo sapiens, UniProt P11473); assay: Binding affinity to VDR (unknown origin)
T1 sequence (P11473 whole entry): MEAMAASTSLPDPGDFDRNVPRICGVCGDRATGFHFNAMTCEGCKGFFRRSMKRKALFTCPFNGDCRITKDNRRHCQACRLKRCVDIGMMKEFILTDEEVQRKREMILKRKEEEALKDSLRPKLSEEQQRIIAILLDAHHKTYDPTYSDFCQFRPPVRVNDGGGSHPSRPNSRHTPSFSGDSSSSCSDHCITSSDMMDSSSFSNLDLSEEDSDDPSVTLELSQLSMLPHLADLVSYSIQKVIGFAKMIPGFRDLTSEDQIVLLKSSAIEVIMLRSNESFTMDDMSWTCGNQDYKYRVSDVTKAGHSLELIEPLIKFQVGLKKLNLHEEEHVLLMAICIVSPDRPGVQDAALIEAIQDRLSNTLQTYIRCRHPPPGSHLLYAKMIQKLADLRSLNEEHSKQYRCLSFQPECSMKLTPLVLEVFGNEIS

Rattus norvegicus [2] = assay: Agonist activity at VDR in 5/6 nephrectomized uremic Sprague-Dawley rat assessed as dose require to suppress serum PTH level administered 3 times per week for 12 days measured 24 hrs post last dose by ELISA; type: functional
Rattus norvegicus [3] = assay: Toxicity in 5/6 nephrectomized uremic Sprague-Dawley rat assessed as dose require to cause hypercalcemia administered 3 times per week for 12 days measured 24 hrs post last dose; type: organism-based; conditions: in vivo
[4] = Therapeutic index, ratio for induction of hypercalcemia over suppression of serum PTH level in 5/6 nephrectomized uremic Sprague-Dawley rat; type: organism-based; conditions: read-out: TI
Vitamin D3 receptor [5] = molecular target: T1, Vitamin D3 receptor; assay: Agonist activity at VDR ligand binding domain (unknown origin) by reporter gene assay

In the case of C=C1[C@H](O)CC(=C/C=C2\CCC[C@]3(C)[C@@H]([C@@H](C)OC[C@H](C)C(C)(C)O)CC[C@@H]23)C[C@H]1O, the EC50 (HL-60) is reported as 11.8 nM, the IC50 (Vitamin D3 receptor [1]) is reported as 38 nM and the Activity (Rattus norvegicus [2]) is reported as 0.004 µg/kg. For the same compound, the Activity (Rattus norvegicus [3]) was > 0.6 µg/kg, the selectivity ratio [4] was > 50 and the EC50 (Vitamin D3 receptor [5]) was < 0.1 nM.
With C[C@H](/C=C/[C@H](C)C(C)(C)O)[C@H]1CC[C@H]2/C(=C/C=C3C[C@@H](O)C[C@H](O)C3)CCC[C@]12C [PARICALCITOL] the EC50 (HL-60) was 12.5 nM, the Activity (Rattus norvegicus [2]) was 0.02 µg/kg and the Activity (Rattus norvegicus [3]) was > 0.08 µg/kg. The selectivity ratio [4] was 4.
